Laboratory results published in PMC9007350, “Aurintricarboxylic acid is a canonical disruptor of the TAZ-TEAD transcriptional complex” (PLoS ONE, 2022).

Molecular target: T1, TAZ-TEAD complex (human TAZ (23-57) probe, human TEAD4 (217-434)) (Homo sapiens, UniProt Q15561)
T1 construct: made in house
Assay: TAZ-TEAD fluorescence polarization assay
Format: binding
Conditions: comparison with ATA, S2 Fig
Method: Human YAP (61–100), human TAZ (23–57) and mouse Vgll1 (26–51) peptide probes were used; all the probes had carboxyfluorescein labels. Human TEAD4 (217–434) was used in the assay at a concentration of 350 nM and the peptide probe concentration was 25 nM. Disruptors were titrated at concentrations ranging from 0–150 μM to the probe-TEAD complex, and the mixtures were incubated at 25°C for 20 min. Then, polarization measurements were taken using a Victor3 (PerkinElmer) plate reader.

T1 sequence (Q15561 217-434, one chain of several): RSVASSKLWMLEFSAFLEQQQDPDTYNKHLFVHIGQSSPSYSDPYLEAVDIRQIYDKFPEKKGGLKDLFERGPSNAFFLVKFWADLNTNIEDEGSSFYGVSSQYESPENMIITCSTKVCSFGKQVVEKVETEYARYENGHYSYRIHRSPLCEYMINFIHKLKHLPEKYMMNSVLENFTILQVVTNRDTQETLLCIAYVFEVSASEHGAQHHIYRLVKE

- effect in the TAZ-TEAD FP assay (in words): did not display an effect
Substance: verteporfin
